Laboratory results taken from patent US20170334899A1, “AMINO-SUBSTITUTED ISOTHIAZOLES” (Bayer Pharma Aktiengesellschaft, priority 2014, published 2017).
pIC50: −log10 of the molar value.

Legend:
[1] = target: T1, catalytic domain of human Bub1 (amino acids 704-1085) (Homo sapiens, UniProt O43683); test: Bub1 kinase assay (TR-FRET); format: biochemical; conditions: 10 μM ATP, avg, read-out: Bub1 avg (IC50 [mol/l])
T1 construct: catalytic domain of human Bub1 (amino acids 704-1085); His6 (N); made in house; host or cells: insect cells (Hi5)
T1 sequence (O43683 704-1085): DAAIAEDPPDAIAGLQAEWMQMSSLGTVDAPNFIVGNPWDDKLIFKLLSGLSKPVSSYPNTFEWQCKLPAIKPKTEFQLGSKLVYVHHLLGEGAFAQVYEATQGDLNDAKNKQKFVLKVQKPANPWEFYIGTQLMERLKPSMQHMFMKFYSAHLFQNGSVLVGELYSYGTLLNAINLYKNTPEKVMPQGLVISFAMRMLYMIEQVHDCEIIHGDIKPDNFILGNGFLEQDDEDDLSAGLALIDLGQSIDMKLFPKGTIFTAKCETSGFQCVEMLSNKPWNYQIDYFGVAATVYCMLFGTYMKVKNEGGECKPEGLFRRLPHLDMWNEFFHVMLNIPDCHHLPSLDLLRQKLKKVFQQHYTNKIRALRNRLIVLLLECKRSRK
Summary of the method: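 Readout is the 665/620 nm TR-FRET ratio from anti-phosphoserine antibody, Eu-labelled anti-mouse IgG and streptavidin-XL665, scaled between no-enzyme and uninhibited controls. Reaction: 1 μM biotinylated peptide, 10 μM ATP, 60 min, 22 °C, after 15 min compound preincubation with His6-Bub1 (704-1085, insect-expressed, ~200 ng/ml).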

[2] = test system: human cervical tumor cell line HeLa (ATCC CCL-2); test: SAC-Formation - Nocodazole-Induced Assay; format: cell-based; conditions: Homo sapiens, HeLa, 24 h, HeLa cells, nocodazole 0.1 μg/ml together with test compound, decrease of mitotic cells (phospho-histone H3 Ser10)
Summary of the method: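 Loss of phospho-histone H3 Ser10-positive cells, counted against Hoechst-stained nuclei by high-content imaging, marked mitotic breakthrough. Compounds (0.005–20 μM, 0.5% DMSO) were co-dosed with 0.1 μg/ml nocodazole onto HeLa cells for 24 h at 37 °C. Curves were fitted with a four-parameter Hill equation.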

Row | pIC50 [1] | pIC50 [2] | SMILES
1 | < 4.70 | 5.11 | Cc1nsc(Nc2cnc3ccccc3n2)c1C(=O)Nc1cccc(NS(=O)(=O)C2CN(CCC(F)(F)F)C2)c1 [Example 288, 3-methyl-5-(quinoxalin-2-ylamino)-N-[3-({[1-(3,3,3-trifluoropropyl)azetidin-3-yl]sulfonyl}amino)phenyl]-1,2-thiazole-4-carboxamide]
2 | ≤ 4.70 | 7.80 | Cc1nsc(Nc2cc(C#N)ccn2)c1C(=O)Nc1ccc(OC2CCN(CC(F)(F)F)CC2)nc1 [Example 25, 5-[(4-Cyanopyridin-2-yl)amino]-3-methyl-N-(6-{[1-(2,2,2-trifluoroethyl)piperidin-4-yl]oxy}pyridin-3-yl)-1,2-thiazole-4-carboxamide]
3 | < 4.70 | 6.59 | Cc1nsc(Nc2cnc(C(F)(F)F)cn2)c1C(=O)Nc1ccc(C(=O)N2CCN(C)CC2)cc1 [Example 262, 3-methyl-N-{4-[(4-methylpiperazin-1 yl)carbonyl]phenyl}-5-{[5-(trifluoromethyl)pyrazin-2-yl]amino}-1,2-thiazole-4-carboxamide]
4 | < 4.70 | 6.85 | Cc1nsc(Nc2cncc(C(F)(F)F)n2)c1C(=O)Nc1ccc(C(=O)N2CCN(CCF)CC2)cc1 [Example 274, N-(4-{[4-(2-fluoroethyl)piperazin-1-yl]carbonyl}phenyl)-3-methyl-5-{[6-(trifluoromethyl)pyrazin-2-yl]amino}-1,2-thiazole-4-carboxamide]
5 | < 4.70 | 6.96 | Cc1nsc(Nc2cnc(C(F)(F)F)cn2)c1C(=O)Nc1ccc(F)c(OCCCN(C)CC(F)F)c1 [Example 301, N-(3-{3-[(2,2-difluoroethyl)(methyl)amino]propoxy}-4-fluorophenyl)-3-methyl-5-{[5-(trifluoromethyl)pyrazin-2-yl]amino}-1,2-thiazole-4-carboxamide]
6 | < 4.70 | 7.10 | Cc1nsc(Nc2cnc(C(F)(F)F)cn2)c1C(=O)Nc1ccc(OC2CCN(CC(F)(F)F)C2)nc1 (stereo not drawn) [Example 297, 3-methyl-N-(6-{[1-(2,2,2-trifluoroethyl)pyrrolidin-3-yl]oxy}pyridin-3-yl)-5-{[5-(trifluoromethyl)pyrazin-2-yl]amino}-1,2-thiazole-4-carboxamide]
7 | 5.49 | 5.55 | Cc1nsc(Nc2cc(C#N)ccn2)c1C(=O)Nc1cccc(C(=O)NC(C)C)c1 [Example 254, 5-[(4-cyanopyridin-2-yl)amino]-N-[3-(isopropylcarbamoyl)phenyl]-3-methyl-1,2-thiazole-4-carboxamide]
8 | < 4.70 | 5.72 | Cc1nsc(Nc2cnc3ccccc3n2)c1C(=O)Nc1cccc(NS(=O)(=O)C2CCN(CC(F)(F)F)C2)c1 (stereo not drawn) [Example 289, 3-methyl-5-(quinoxalin-2-ylamino)-N-[3-({[1-(2,2,2-trifluoroethyl)pyrrolidin-3-yl]sulfonyl}amino)phenyl]-1,2-thiazole-4-carboxamide]
9 | < 4.70 | 5.48 | Cc1nsc(Nc2cnc3ccccc3n2)c1C(=O)Nc1cccc(NS(=O)(=O)C2CCN(CCC(F)(F)F)CC2)c1 [Example 283, 3-methyl-5-(quinoxalin-2-ylamino)-N-[3-({[1-(3,3,3-trifluoropropyl)piperidin-4-yl]sulfonyl}amino)phenyl]-1,2-thiazole-4-carboxamide]
